From PMC10518421, “Zebrafish as model system for the biological characterization of CK1 inhibitors” (Frontiers in Pharmacology, 2023)
Entries after “also recorded” stand apart in the source; their conditions may differ. Read-outs that look alike come from different tables or passages of the source.

Experiments:
CK1δ (rat) = CK1δ (rat) (Rattus norvegicus, UniProt Q06486); test: initial IC50 determination in in vitro kinase assays, prior to standardization; assay type: biochemical; conditions: not published
Sequence of CK1δ (rat) (Q06486 whole entry): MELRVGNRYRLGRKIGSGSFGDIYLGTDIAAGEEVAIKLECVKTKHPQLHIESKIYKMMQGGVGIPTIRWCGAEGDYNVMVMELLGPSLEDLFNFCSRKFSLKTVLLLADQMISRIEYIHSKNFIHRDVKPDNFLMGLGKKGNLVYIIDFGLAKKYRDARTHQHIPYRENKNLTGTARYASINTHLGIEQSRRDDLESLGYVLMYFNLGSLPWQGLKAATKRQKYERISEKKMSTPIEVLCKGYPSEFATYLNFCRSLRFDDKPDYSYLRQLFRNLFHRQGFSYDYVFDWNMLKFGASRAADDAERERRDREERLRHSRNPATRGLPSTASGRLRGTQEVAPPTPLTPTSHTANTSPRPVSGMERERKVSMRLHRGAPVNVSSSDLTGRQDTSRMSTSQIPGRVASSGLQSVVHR
Method: (§1) The SMIs used in this study (summarized in Supplementary Table S2) were selected based on their inhibitory capacity toward CK1δ in vitro, whereby a broad range of inhibitors with varying efficiency were included. The determination of IC50-values was conducted prior to the standardization workflow establishment. Zebrafish embryos treated with 20 µM of the respective compound were phenotypically analyzed.
(§2) Supplementary Table 6: List of the inhibitors that were selected for the in vivo screening of zebrafish embryonic development. The compounds were selected based on their ability to inhibit CK1δ in in vitro kinase assays. The initial IC50-values were determined prior to the establishment of the standardized in vitro kinase assay protocol. The Supplementary Table summarizes, whether the zebrafish embryos presented an abnormal phenotype upon inhibitor treatment. The inhibitors were added to the zebrafish medium in a concentration of 20 µM.

CK1ε = CK1ε (Homo sapiens, UniProt P49674); test: as above; assay type: biochemical; conditions: not published, read-out: IC50 values wtCK1ε
Sequence of CK1ε (P49674 whole entry): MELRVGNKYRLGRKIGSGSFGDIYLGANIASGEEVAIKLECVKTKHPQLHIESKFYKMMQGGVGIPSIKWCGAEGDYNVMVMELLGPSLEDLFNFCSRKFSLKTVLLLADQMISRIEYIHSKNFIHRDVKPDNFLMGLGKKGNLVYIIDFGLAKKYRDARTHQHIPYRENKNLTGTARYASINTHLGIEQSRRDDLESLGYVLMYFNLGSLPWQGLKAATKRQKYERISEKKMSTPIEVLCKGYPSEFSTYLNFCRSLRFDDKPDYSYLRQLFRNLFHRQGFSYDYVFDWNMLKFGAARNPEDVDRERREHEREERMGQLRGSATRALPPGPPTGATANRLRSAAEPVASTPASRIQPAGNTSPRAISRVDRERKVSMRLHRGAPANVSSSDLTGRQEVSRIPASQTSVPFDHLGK
Method: as §1, §2

M28FCK1δ (rat) = M28FCK1δ (rat) (Rattus norvegicus, UniProt Q06486, M82F); test: initial IC50 determination in in vitro kinase assays, prior to standardization; assay type: biochemical
Sequence of M28FCK1δ (rat) (Q06486 whole entry M82F): as the sequence (Q06486 whole entry) above, with M82F counted along it

His-DrCK1ε = test: in vitro kinase assay, α-casein phosphorylation with [γ-32P]-ATP, standard conditions; assay type: biochemical, zebrafish (Danio rerio); conditions: Michaelis-Menten, ATP 0.5-250 µM
Method: (§3) Each in vitro kinase reaction was performed in a total volume of 15 µL containing 25 mM Tris-HCl (pH 7.0), 10 mM MgCl2, 100 µM EDTA, 2.8 µM of the substrate α-casein and 0.4 pmol [γ-^32P]-ATP at 30°C. […] Reactions were stopped by adding 3 µL of 5x SDS loading buffer and incubating at 95°C for 5 min. Proteins were separated by SDS-PAGE and stained with Coomassie Brilliant Blue R250 (Waldeck GmbH & Co. KG, Muenster, Germany). Autoradiography visualized the incorporation of radioactively labelled γ-phosphate into the proteins. A quantitative analysis of the radioactive signal was performed by excising the proteins from dried gels and measuring phosphate incorporation via Cherenkov counting (Beckmann Scintillation Counter). For the determination of the initial velocity region, a linear regression was performed. Thereby, the number of included data-points was decreased stepwise, and the point of time with the highest maximum coefficient of determination (R ^2) was chosen as the kinase-specific standard reaction time. For determination of the maximal velocity (Vmax) and Michaelis constant (Km) of ATP, various ATP concentrations in a range from 0.5 to 250 µM were tested. Raw data was used for the calculation of enzyme velocity (V) in [pmol/min]. Then, V was plotted over substrate (ATP) concentration and fitted to the Michaelis-Menten model via GraphPad Prism 8 (GraphPad Software, La Jolla, CA, United States). According to the Michaelis-Menten curve, Km, which is the concentration of the substrate, that is needed to obtain half Vmax, was calculated. For determination of IC50 values, the scintillation data measured in cpm was transformed to pmol of transferred phosphate. The data was then transformed logarithmically (X = log(X)), normalized to DMSO (100%) and zero (0%) before fitting to sigmoidal dose-response curves with variable slope with nonlinear regression using GraphPad Prism 7.
(§4) In compliance with the established standard conditions the kinase assays were performed in the presence of 20 µM of the respective inhibitor (Figure 7).

GST-humCK1δ^TV1 = target: T1, GST-humCK1δ^TV1 (Homo sapiens, UniProt P48730); parameters: method as in Roth et al., 2021; conditions: previously established, ref Roth et al., 2021; read-out: Km(ATP); cited from earlier work
T1 construct: made in house; host or cells: E. coli Rosetta 2 (DE3)
T1 sequence (P48730 whole entry): as the sequence (Q06486 whole entry) above, with V381I counted along it

GST-CK1ε = target: T2, GST-CK1ε (Homo sapiens, UniProt P49674); test: in vitro kinase assay, α-casein phosphorylation with [γ-32P]-ATP, standard conditions; assay type: biochemical; conditions: Michaelis-Menten, ATP 0.5-250 µM
T2 construct: made in house; host or cells: E. coli Rosetta 2 (DE3)
T2 sequence (P49674 whole entry): as the sequence (P49674 whole entry) above
Method: as §3, §4

His-DrCK1δA = target: T3, His-DrCK1δA (Danio rerio, UniProt Q7T2E3); test: as above; assay type: biochemical, zebrafish (Danio rerio); conditions: Michaelis-Menten, ATP 0.5-250 µM
T3 construct: made in house; host or cells: E. coli Rosetta 2 (DE3)
T3 sequence (Q7T2E3 1-403): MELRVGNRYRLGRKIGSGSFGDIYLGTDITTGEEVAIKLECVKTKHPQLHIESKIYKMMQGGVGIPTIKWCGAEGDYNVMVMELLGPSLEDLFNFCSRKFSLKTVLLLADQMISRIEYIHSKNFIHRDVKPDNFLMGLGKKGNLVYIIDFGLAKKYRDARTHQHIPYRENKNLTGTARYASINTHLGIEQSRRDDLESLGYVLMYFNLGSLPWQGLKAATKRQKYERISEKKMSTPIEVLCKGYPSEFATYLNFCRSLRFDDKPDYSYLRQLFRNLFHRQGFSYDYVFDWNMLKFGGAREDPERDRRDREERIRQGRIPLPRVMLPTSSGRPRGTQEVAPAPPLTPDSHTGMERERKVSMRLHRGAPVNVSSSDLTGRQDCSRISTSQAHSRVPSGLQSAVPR
Method: as §3, §4
(§5) Next, in vitro kinase assays were performed in absence and presence of the respective SMI at different concentrations (ranging from 13 to 26667 nM). The kinase activity of the inhibitor-treated samples was normalized to the DMSO-control and plotted against the inhibitor concentration (Figure 10).

His-DrCK1δB = target: T4, His-DrCK1δB (Danio rerio, UniProt Q6P3K7); test: as above; assay type: biochemical, zebrafish (Danio rerio); conditions: Michaelis-Menten, ATP 0.5-250 µM
T4 construct: made in house; host or cells: E. coli Rosetta 2 (DE3)
T4 sequence (Q6P3K7 1-409): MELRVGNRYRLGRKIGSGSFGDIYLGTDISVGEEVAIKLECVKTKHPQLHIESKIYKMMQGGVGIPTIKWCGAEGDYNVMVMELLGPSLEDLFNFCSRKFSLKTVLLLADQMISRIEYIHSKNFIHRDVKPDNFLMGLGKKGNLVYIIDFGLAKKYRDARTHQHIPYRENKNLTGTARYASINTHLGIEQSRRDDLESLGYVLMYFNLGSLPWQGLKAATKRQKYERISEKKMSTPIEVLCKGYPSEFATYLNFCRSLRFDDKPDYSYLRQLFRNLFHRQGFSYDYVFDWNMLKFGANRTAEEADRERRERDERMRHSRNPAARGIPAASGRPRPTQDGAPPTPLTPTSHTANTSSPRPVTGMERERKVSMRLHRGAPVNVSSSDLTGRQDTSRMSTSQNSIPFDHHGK
Method: as §3, §4, §5

zebrafish PKCα = tested on: zebrafish PKCα; parameters: method as in Qiao et al., 2021; conditions: ref Qiao et al., 2021; cited from earlier work
human PKCα = tested on: human PKCα; parameters: method as in Qiao et al., 2021; conditions: ref Qiao et al., 2021; cited from earlier work
CK1δ = tested on: CK1δ; parameters: method as in Bischof et al., 2012; Bibian et al., 2013; conditions: ref Bischof et al., 2012; Bibian et al., 2013; cited from earlier work
csnk1da (CK1δA) = test: morpholino knockdown in zebrafish embryos, phenotype; assay type: in vivo, zebrafish (D. rerio); conditions: 400 µM injected, 72 hpf
Excerpt: The TüAB wildtype strain was used for all experiments. […] DMSO served as solvent control. […] Embryos were immobilized in 2.5% methylcellulose.

CK1δ (TV2) = target: T5, CK1δ (TV2) (Homo sapiens, UniProt P48730); test: initial IC50 determination in in vitro kinase assays, prior to standardization; assay type: biochemical; conditions: not published
T5 sequence (P48730 1-409 isoform P48730-2): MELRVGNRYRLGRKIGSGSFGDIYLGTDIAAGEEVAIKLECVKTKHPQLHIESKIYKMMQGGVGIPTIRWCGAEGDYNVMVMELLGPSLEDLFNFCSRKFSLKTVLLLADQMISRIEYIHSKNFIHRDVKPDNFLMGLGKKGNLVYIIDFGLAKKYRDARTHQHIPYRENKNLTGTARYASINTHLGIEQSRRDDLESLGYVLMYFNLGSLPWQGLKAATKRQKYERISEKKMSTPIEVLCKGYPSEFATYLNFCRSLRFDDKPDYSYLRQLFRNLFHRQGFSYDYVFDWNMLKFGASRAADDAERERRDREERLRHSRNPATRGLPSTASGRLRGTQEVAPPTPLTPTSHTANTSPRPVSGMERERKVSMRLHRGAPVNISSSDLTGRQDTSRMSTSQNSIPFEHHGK
Method: as §1, §2

CK1δ (TV1) = CK1δ (TV1) (Homo sapiens, UniProt P48730); test: as above; assay type: biochemical; conditions: not published
Sequence of CK1δ (TV1) (P48730 whole entry): as the sequence (Q06486 whole entry) above, with V381I counted along it
Method: as §1, §2

**Q.** For COc1cc(Cn2c(SCC(=O)Nc3nc4ccc(C(F)(F)F)cc4s3)nc3c(c2=O)SCC3)cc(OC)c1 [G1-4, 2-((3-(3,5-Dimethoxybenzyl)-4-oxo-3,4,6,7-tetrahydrothieno[3,2-d]pyrimidin-2-yl)thio)-N-(6-(trifluormethyl)benzo [d]thiazol-2-yl)acetamid], which IC50 (CK1δ (rat)) is on record?
**A.** 380 nM

**Q.** What about the IC50 (CK1ε) of the same compound?
**A.** 3200 nM

**Q.** And the Phenotypic changes (zebrafish embryos; zebrafish, in vivo)?
**A.** None observed

**Q.** What about the “Phenotypic changes (with severity) after treatment of zebrafish embryos with 20 µM inhibitor” value (zebrafish embryos; zebrafish, in vivo) of the same compound?
**A.** No

**Q.** And the IC50 (M28FCK1δ (rat); prior to standardization, not published, read-out: IC50 values M28FCK1δ (rat))?
**A.** 160 nM

**Q.** Which Km (His-DrCK1ε) does the source give for Nc1ncnc2c1ncn2[C@@H]1O[C@H](COP(=O)(O)OP(=O)(O)OP(=O)(O)O)[C@@H](O)[C@H]1O [ATP] here?
**A.** 14.5 µM

**Q.** What about the Km (GST-humCK1δ^TV1) of the same compound?
**A.** 6 µM

**Q.** And the Km (GST-CK1ε)?
**A.** 15.4 µM

**Q.** What about the Km (His-DrCK1δA) of the same compound?
**A.** 12 µM

**Q.** What about the Km (His-DrCK1δB) of the same compound?
**A.** 5.31 µM

**Q.** What does the source list for O=S(=O)(NCCNC/C=C/c1ccc(Br)cc1)c1cccc2cnccc12 [H89]?
**A.** IC50 (zebrafish PKCα): 49800 nM; IC50 (human PKCα): 31200 nM

**Q.** Which “50% inhibitory concentration (IC50) values” (CK1δ) does the source give for Fc1cccc(-n2cnc3c(NCc4nc5c(F)c(F)ccc5[nH]4)nc(N4CCOCC4)nc32)c1 [SR-3029] here?
**A.** double-digit nanomolar range

**Q.** For O=C(Nc1nc2ccc(C(F)(F)F)cc2[nH]1)c1csc(NC(=O)c2ccccc2OC(F)(F)F)n1 [Bischof-5], which “50% inhibitory concentration (IC50) values” (CK1δ) is on record?
**A.** double-digit nanomolar range

**Q.** With “csnk1da: morpholino-modified antisense oligonucleotide targeting the translational start site of csnk1da, 5′-TCGGTTTCCTACTCTCAATTCCATG-3′ (all phosphorodiamidate morpholino (PMO))” as the compound, how does the “phenotype of morpholino injected embryos” value (csnk1da (CK1δA)) read?
**A.** reduced heart function resulting in blood congestion; also recorded: cardiac malfunction

**Q.** With CC(C)n1c(SCC(=O)Nc2nc3ccc(C(F)(F)F)cc3s2)nc2c(c1=O)SCC2 [G1-5, 2-((3-Isopropyl-4-oxo-3,4,6,7-tetrahydrothieno[3,2-d]pyrimidin-2-yl)thio)-N-(6-(trifluormethyl)benzo [d]thiazol-2-yl)acetamid] as the compound, how does the IC50 (CK1δ (TV2)) read?
**A.** 510 nM

**Q.** And the IC50 (CK1δ (TV1))?
**A.** 380 nM

**Q.** And the IC50 (CK1δ (rat))?
**A.** 160 nM

**Q.** What about the IC50 (CK1ε) of the same compound?
**A.** 780 nM

**Q.** What about the “Phenotypic changes (with severity) after treatment of zebrafish embryos with 20 µM inhibitor” value (zebrafish embryos; 20 µM in medium, from 24 hpf) of the same compound?
**A.** Yes (mild)

**Q.** And the “phenotype of treated zebrafish embryos” value (zebrafish embryos; 20 µM, 24 to 72 hpf (48 h))?
**A.** weak effect on heart development and function with a mild bradycardia and reduced heart rate; also recorded: a curved tail

**Q.** What about the IC50 (M28FCK1δ (rat)) of the same compound?
**A.** 120 nM
